Assay results from patent US10849916B2 (priority 2014, dated 2020).

Test: Water (moisture) content by Karl Fischer method
Type: physicochemical
Details: for Water content tested by KF method: isolated impurity fraction from preparative HPLC
Protocol: 1. Water content: Water content was estimated by karl fischer (KF) method wherein suitable quantity of methanol was taken in the flask and titrated with karl fischer reagent to neutralize the methanol. Then weighed quantity of the sample is added to the flask and titrated to the end point.

| SMILES | Water content tested by KF method [% by weight] | Water content in the vials (after drying under vacuum in lyophilizer) | Water content of the input cyclophosphamide monohydrate (input drug substance, before drying) |
| --- | --- | --- | --- |
| CCOP(=O)(O)OCCCN1CCNCC1 [0.21 RRT, ethyl (3-(piperazin-1-yl)propyl) hydrogen phosphate] | 2.69 | – | – |
| CCOCCN(CCCl)P1(=O)NCCCO1 (stereo not shown) [0.75 RRT, 2-((2-chloroethyl)(2-ethoxyethyl)amino)-1,3,2-oxazaphosphinane 2-oxide] | 2.71 | – | – |
| O=P1(N(CCCl)CCCl)NCCCO1 (stereo not shown) [Cyclophosphamide, 2-[bis(2-chloroethyl)amino]tetrahydro-2H-1,3,2-oxazaphosphorine 2-oxide monohydrate] | – | approximately 1% | *Water content of the input cyclophosphamide monohydrate is 6.25% w/w. |
